Measured values: ChEMBL document CHEMBL1275488, “Extended-spectrum beta-lactamase production is associated with an increase in cell invasion and expression of fimbrial adhesins in Klebsiella pneumoniae” (2008)

Test system: Klebsiella pneumoniae
Test: Antibacterial activity against extended-spectrum beta-lactamase-producing Klebsiella pneumoniae
Assay type: functional

| MIC [µg/mL] | Structure (SMILES) |
| --- | --- |
| < 2 | CO/N=C(\C(=O)N[C@@H]1C(=O)N2C(C(=O)O)=C(COC(C)=O)CS[C@H]12)c1csc(N)n1 [CEFOTAXIME] |
| < 2 | CO/N=C(\C(=O)N[C@@H]1C(=O)N2C(C(=O)O)=C(CSc3nc(=O)c(O)nn3C)CS[C@H]12)c1csc(N)n1 [CEFTRIAXONE] |

| Structure (SMILES) | MIC [µg/mL] |
| --- | --- |
| CC(C)(O/N=C(\C(=O)N[C@@H]1C(=O)N2C(C(=O)[O-])=C(C[n+]3ccccc3)CS[C@H]12)c1csc(N)n1)C(=O)O [CEFTAZIDIME] | < 2 |
